Test results taken from patent US20210113540A1, “TREATMENT AGENT AND PHARMACEUTICAL COMPOSITION FOR GLIOMA” (NATIONAL UNIVERSITY CORPORATION HOKKAIDO UNIVERSITY, priority 2018, published 2021).
Like-named read-outs stand apart in the source and are kept apart here.

Legend:
E6 cells = assay: Quantitative determination of metabolites by LC-MS/MS in E6 cells; format: cell-based, human; set-up: dose or concentration left out as unconfirmed; conditions: 24 hours, compared to control DMSO-treated group
Procedure: (§1) Compound 8 was added to GICs (E6, E16) at […] and treated for 24 hours. Cells were washed with a 5% mannitol solution, 70% ice-cold methanol was added, and metabolites were extracted. […] In addition, the amount of orotic acid was decreased in E16 cells.

recombinant human DHODH = biological target: T1, recombinant human DHODH (Homo sapiens, UniProt Q02127); assay: DHODH enzyme assay (DCIP quenching); format: biochemical; conditions: pH 8.0, DCIP absorbance 600 nm, 50 minutes; read-out: DHODH enzyme inhibition IC50
T1 construct: DHODH, 31-395aa, Human, His tag, E. coli, ATGP1615; His tag; purchased ATGen ATGP1615; host or cells: E. coli
Procedure: For DHODH enzyme assay, “Benjamin Bader, Wolfgang Knecht, Markus Fries, and Monika Löffler. Expression, Purification, and Characterization of Histidine-Tagged Rat and Human Flavoenzyme Dihydroorotate Dehydrogenase. Protein Expression and Purification, 1998, 13, 414-422” was referred to.
DHODH activity was evaluated using an enzyme assay system that couples with an assay in a blue-coloring dye 2,6-dichlorophenol indophenol (DCIP, MP BIOMEDICALS, MP150118) quenching assay. Purified recombinant human DHODH (DHODH, 31-395aa, Human, His tag, E. coli, ATGP1615) was purchased from ATGen. […] Enzyme activity was assessed by measuring the decrease in DCIP absorbance (600 nm) for 50 minutes using an Envision plate-reading spectrophotometer (PerkinElmer Co., Ltd.). […]
Enzyme reaction inhibition rate (%)=(Amount of luminescence from wells supplemented with test compound)/(Amount of luminescence from wells supplemented with DMSO)×100

[1] = test system: Glioma-initiating cell E6R; assay: Cell growth test (MTT) on GICR strain E6R; format: cell-based; conditions: Homo sapiens, 72 h
Procedure: GICR strain: Cell growth test was performed using E6R (Stem Cells. 2016 August; 34(8):2016-25.).
Cell culture solutions were obtained by mixing a medium prepared by adding various compounds, bFGF (Peprotech, 100-18B) and EGF (Peprotech, 100-15) to DMEM/Ham's F-12 medium (SIGMA, D8062) and a medium prepared by adding FCS (Hyclone, SH30910.03) to DMEM medium (Nacalai tesque, 08458-45) to a concentration of 10% for use.
Each compound adjusted to a predetermined concentration was dispensed into a 96-well plate (Falcon, 353072) at 80 μL/well, and E6 cells and E6R cells were seeded on the 96-well plate at 1000 cells/80 μL/well. After 3 days, 10 μL of an MTT reagent (DOJINDO, 341-01823) was added, the cells were incubated at 37° C. for 3 hours, the culture solution was removed, and 100 μL of DMSO was added. The absorbance at 570 nm was measured using Bio-Rad iMark (Bio-Rad, 168-1130JA). The growth inhibition rate at each test compound concentration was calculated by the following formula using the absorbance as an index of the viable cell count.
The growth inhibition rate at each compound concentration was determined, and the 50% growth inhibition concentration GI50 (μmol/L)] was calculated using XLfit. Growth inhibition rate (%)=(Amount of luminescence from wells supplemented with test compound)/(Amount of luminescence from wells supplemented with DMSO)×100
GIC and GICR strain: Cell growth test was performed using E6, E6R, E16, and E16R (Stem Cells. 2016 August; 34(8): 2016-25.).

E16 cells = assay: Quantitative determination of metabolites by LC-MS/MS in E16 cells; format: cell-based, human; set-up: dose or concentration left out as unconfirmed; conditions: 24 hours
Procedure: as §1

T1 sequence (Q02127 31-395): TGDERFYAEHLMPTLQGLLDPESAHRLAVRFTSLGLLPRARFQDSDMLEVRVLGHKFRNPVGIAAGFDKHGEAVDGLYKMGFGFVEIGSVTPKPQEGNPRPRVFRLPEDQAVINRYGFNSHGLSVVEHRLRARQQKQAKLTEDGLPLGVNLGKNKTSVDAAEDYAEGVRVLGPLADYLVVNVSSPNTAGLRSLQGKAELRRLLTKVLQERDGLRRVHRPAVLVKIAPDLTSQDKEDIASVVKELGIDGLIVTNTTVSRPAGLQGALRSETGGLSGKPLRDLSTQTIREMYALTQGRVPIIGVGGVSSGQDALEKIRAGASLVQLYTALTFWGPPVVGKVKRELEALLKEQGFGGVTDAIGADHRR

IC50 (recombinant human DHODH): 8.96 nM
GI50 ([1]; MTT after 3 days, read-out: ER6 GI50): 11.8 nM
GI50 ([1]; class of ER6 GI50, MTT after 3 days, read-out: Evaluation): < 1000 nM
Structure (SMILES): O=C(O)c1cc(C2CC2)cnc1Nc1ccc2c(ccn2-c2ccccc2)c1 [Compound 8, 5-cyclopropyl-2-((1-phenyl-1H-indole-5-yl)amino)nicotinic acid]
increase of the amount of DHO in E6 cells (E6 cells): 596 fold
amount of orotic acid in E16 cells (E16 cells): decreased
increase of the amount of DHO in E16 cells (E16 cells; compared to control DMSO-treated group): 125 fold
